This note sets out measurements from paper PMC9046087, “Structural basis of tethered agonism of the adhesion GPCRs ADGRD1 and ADGRF1” (Nature, 2022).

pEC50: −log10 of the molar value. Ends that are not written are not given here.

What all share (experiment): BRET assay using TRUPATH biosensors, Gi activation of ADGRF1
Type in all cases: cell-based

In assay [1] the target is T1, ADGRF1 (Homo sapiens, UniProt Q5T601, F672A).
T1 construct: Flag (N); expressed in transfected cells; host or cells: HEK293F
The settings on record: ADGRF1 F672^3.44bA. Summed up: (§1)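 HEK293F cells transiently co-transfected with wild-type or mutant receptor, Gα-RLuc8 (GαsS for Gs, Gαi1 for Gi), Gβ3 and Gγ9-GFP2 at 2:1:1:1. After 30 min at 37 °C and coelenterazine 400a, cells stimulated with synthetic stalk peptide. BRET = GFP2/RLuc8 emission, last of five readings.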

Assay [2] deals with T2, ADGRF1 (Homo sapiens, UniProt Q5T601, F747A).
T2 construct: Flag (N); expressed in transfected cells; host or cells: HEK293F
The settings on record: ADGRF1 F747^5.36bA, n = 3. Summed up:
as §1

Assay [3] has as its target T3, ADGRF1 (Homo sapiens, UniProt Q5T601, G831A).
T3 construct: Flag (N); expressed in transfected cells; host or cells: HEK293F
The settings on record: ADGRF1 G831^7.50bA, n = 3. Summed up: as §1

For assay [4], the target named is T4, ADGRF1 (Homo sapiens, UniProt Q5T601, L764A).
T4 construct: Flag (N); expressed in transfected cells; host or cells: HEK293F
The settings on record: ADGRF1 L764^5.56bA, n = 3. Summed up: as §1

Assay [5] has as its target T5, ADGRF1 (Homo sapiens, UniProt Q5T601, L769A).
T5 construct: Flag (N); expressed in transfected cells; host or cells: HEK293F
T5 sequence (Q5T601 20-910 L769A): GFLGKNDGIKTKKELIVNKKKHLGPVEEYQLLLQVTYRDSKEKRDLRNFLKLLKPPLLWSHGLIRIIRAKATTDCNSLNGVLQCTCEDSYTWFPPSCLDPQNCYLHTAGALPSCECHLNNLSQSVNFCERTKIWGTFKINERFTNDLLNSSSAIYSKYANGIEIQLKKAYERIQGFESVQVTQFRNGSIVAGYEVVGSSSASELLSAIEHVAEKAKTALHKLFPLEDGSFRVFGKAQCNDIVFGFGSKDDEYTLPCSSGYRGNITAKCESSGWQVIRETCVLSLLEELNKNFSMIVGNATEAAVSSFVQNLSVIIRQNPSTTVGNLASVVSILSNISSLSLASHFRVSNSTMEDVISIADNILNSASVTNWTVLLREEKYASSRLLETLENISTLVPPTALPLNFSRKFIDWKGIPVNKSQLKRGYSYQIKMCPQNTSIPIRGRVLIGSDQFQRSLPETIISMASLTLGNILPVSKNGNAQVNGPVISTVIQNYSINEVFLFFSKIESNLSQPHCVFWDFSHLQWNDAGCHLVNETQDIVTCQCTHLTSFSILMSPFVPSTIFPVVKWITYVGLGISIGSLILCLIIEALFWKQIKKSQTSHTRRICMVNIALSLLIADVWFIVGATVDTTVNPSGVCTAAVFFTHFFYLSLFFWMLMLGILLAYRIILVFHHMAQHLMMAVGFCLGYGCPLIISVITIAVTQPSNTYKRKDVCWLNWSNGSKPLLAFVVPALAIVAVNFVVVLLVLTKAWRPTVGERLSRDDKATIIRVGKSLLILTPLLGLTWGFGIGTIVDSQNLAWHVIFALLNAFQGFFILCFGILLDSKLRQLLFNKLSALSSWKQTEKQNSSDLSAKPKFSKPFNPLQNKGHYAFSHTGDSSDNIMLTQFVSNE
The settings on record: ADGRF1 L769^5.61bA. Summed up: as §1

In assay [6] the target is T6, ADGRF1 (Homo sapiens, UniProt Q5T601, L800A).
T6 construct: Flag (N); expressed in transfected cells; host or cells: HEK293F
Conditions: ADGRF1 L800^6.49bA. Summed up:
as §1

For assay [7], the target named is T7, ADGRF1 (Homo sapiens, UniProt Q5T601, W804A).
T7 construct: Flag (N); expressed in transfected cells; host or cells: HEK293F
Conditions: ADGRF1 W804^6.53bA. Summed up:
as §1

Setting [8] is: n = 3, read-out: pEC50 (mean ± s.e.m.) (converted).

T3 sequence (Q5T601 20-910 G831A): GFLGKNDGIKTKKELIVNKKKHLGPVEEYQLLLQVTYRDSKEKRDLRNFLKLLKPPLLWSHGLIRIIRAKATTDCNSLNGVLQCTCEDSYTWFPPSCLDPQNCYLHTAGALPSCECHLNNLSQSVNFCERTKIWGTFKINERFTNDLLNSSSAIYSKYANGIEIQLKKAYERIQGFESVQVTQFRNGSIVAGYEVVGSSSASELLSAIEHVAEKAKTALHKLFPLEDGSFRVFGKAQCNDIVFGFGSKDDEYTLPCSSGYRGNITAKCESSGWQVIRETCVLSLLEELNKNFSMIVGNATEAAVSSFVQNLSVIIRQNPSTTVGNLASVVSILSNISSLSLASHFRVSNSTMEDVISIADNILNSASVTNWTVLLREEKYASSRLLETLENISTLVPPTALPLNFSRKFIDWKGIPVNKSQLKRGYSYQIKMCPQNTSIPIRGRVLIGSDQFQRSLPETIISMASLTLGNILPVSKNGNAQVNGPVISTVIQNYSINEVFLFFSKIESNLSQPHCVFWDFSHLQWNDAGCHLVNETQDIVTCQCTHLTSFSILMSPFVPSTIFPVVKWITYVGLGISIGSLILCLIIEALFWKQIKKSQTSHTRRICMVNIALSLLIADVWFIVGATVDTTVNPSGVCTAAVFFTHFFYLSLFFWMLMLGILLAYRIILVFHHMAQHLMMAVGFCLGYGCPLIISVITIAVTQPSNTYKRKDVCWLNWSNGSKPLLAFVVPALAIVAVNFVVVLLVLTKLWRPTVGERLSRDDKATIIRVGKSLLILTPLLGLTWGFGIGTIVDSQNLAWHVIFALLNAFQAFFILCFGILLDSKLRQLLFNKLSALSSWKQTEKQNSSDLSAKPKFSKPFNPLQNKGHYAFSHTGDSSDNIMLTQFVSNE
T6 sequence (Q5T601 20-910 L800A): as the sequence (Q5T601 20-910 G831A) above, with L781A, A812G counted along it
T1 sequence (Q5T601 20-910 F672A): as the sequence (Q5T601 20-910 G831A) above, with F653A, A812G counted along it
T4 sequence (Q5T601 20-910 L764A): as the sequence (Q5T601 20-910 G831A) above, with L745A, A812G counted along it
T7 sequence (Q5T601 20-910 W804A): as the sequence (Q5T601 20-910 G831A) above, with W785A, A812G counted along it
T2 sequence (Q5T601 20-910 F747A): as the sequence (Q5T601 20-910 G831A) above, with F728A, A812G counted along it

A word on the pEC50: it is −log10 of the EC50, conventionally taken in molar units. A high value points to a small EC50. Regarding TSFSILMSPFVP [pF1], the “Emax (mean ± s.e.m.)” value at ADGRF1 [1] (n = 3) was 72 ± 12 % of WT; on ADGRF1 [2], 80 ± 13 % of WT; at ADGRF1 [3] it was 97 ± 15 % of WT; at ADGRF1 [4] it was 86 ± 14 % of WT; at ADGRF1 [5] (n = 3), 102 ± 12 % of WT; on ADGRF1 [6] (n = 3), 105 ± 8 % of WT. Further, the “Emax (mean ± s.e.m.)” value at ADGRF1 [7] (n = 4) is 86 ± 19 % of WT. In addition, the EC50 was 437 nM at ADGRF1 [1] (setting [8]); 302 nM at ADGRF1 [5] (setting [8]); 257 nM on ADGRF1 [6] (setting [8]); 977 nM on ADGRF1 [7] (n = 4, read-out: pEC50 (mean ± s.e.m.) (converted)). For the same sequence, the pEC50 at ADGRF1 [2] was 5.91; on ADGRF1 [3], 5.99; on ADGRF1 [4], 5.89.
